According to patent US20260297092A1, “PYRAZOLOPYRIMIDINE DERIVATIVES AS INHIBITORS OF NLRP3” (Takeda Pharmaceutical Company Limited, priority 2023, published 2026):

Legend:
[1] = test system: NLRP3 inflammasome (IL-1β production in THP-1 cells); assay: IL-1β TR-FRET Assay (percentage of inhibition at 300 nM, 6 μM or 10 μM); assay type: cell-based, human; details: LPS priming, ATP activation; for inhibition at 0.3 µM: THP-1, 300 nM, read-out: IL-1β inhibitory rate at 300 nM (%)
How it was run: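 Percent inhibition of IL-1β used DMSO wells as 0% and 3 μM MCC-950 wells as full inhibition, with supernatant read by HTRF. Beforehand, IFN-γ-differentiated (25 ng/mL, 24 h), LPS-primed (50 ng/mL, 24 h) THP-1 cells received compound 30 min before inflammasome activation by 20 mM ATP for 2 h.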

[2] = test system: TNF-α (NF-κB pathway, THP-1 cells); assay: TNF-α Assay (IC50); assay type: cell-based, human; details: 600 ng/mL LPS, 3 hours
How it was run: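 Supernatant TNF-α quantified by ELISA after 3 h stimulation with 600 ng/mL LPS at 37 °C, following 30 min compound preincubation. Cells: IFN-differentiated (25 ng/mL, 24 h) THP-1 macrophages, 40,000/well, serum-free. IC50 by sigmoidal fit of % inhibition, with TPCA-1 as 100% control.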

Row | SMILES | inhibition at 0.3 µM ([1]; Homo sapiens) [%] | IC50 ([2]; Homo sapiens) [µM] | further results
1 | CCOc1nc2nn(-c3c(C)cc(Cl)cc3F)cc2c(=O)[nH]1 [Example 65, 2-(4-chloro-2-fluoro-6-methylphenyl)-6-ethoxy-2,5-dihydro-4H-pyrazolo[3,4-d]pyrimidin-4-one] | 96 | > 30 | –
2 | Cc1cc(C2CC2)cc(C)c1-n1cc2c(=O)[nH]c([C@@]3(F)CCOC3)nc2n1 [Example 289, 2-(4-cyclopropyl-2,6-dimethylphenyl)-6-[(3R)-3-fluorooxolan-3-yl]-2,5-dihydro-4H-pyrazolo[3,4-d]pyrimidin-4-one or 2-(4-cyclopropyl-2,6-dimethylphenyl)-6-[(3S)-3-fluorooxolan-3-yl]-2,5-dihydro-4H-pyrazolo[3,4-d]pyrimidin-4-one] | – | – | IL-1β inhibitory rate at 6 μM (%) ([1]; 6 μM): 101%; IC50 [2]: > 30 µM
3 | CCOc1nc2nn(-c3c(F)cc(C)cc3OC)cc2c(=O)[nH]1 [Example 93, 6-ethoxy-2-(2-fluoro-6-methoxy-4-methylphenyl)-2,5-dihydro-4H-pyrazolo[3,4-d]pyrimidin-4-one] | 80 | > 30 | –
4 | Cc1ccc(-n2nc3nc(OCC(C)(F)F)[nH]c(=O)c3c2C)c(O)c1 [Example 91, 6-(2,2-difluoropropoxy)-2-(2-hydroxy-4-methylphenyl)-3-methyl-2,5-dihydro-4H-pyrazolo[3,4-d]pyrimidin-4-one] | 76 | > 30 | –
5 | CCOc1nc2nn(-c3c(C)cc(C4CC4)cc3OC(F)F)cc2c(=O)[nH]1 [Example 222, 2-[4-cyclopropyl-2-(difluoromethoxy)-6-methylphenyl]-6-ethoxy-2,5-dihydro-4H-pyrazolo[3,4-d]pyrimidin-4-one] | 98 | > 30 | –
6 | CCOc1nc2nn(-c3ccc(C4CC4)cn3)cc2c(=O)[nH]1 [Example 130, 2-(5-cyclopropylpyridin-2-yl)-6-ethoxy-2,5-dihydro-4H-pyrazolo[3,4-d]pyrimidin-4-one] | – | > 30 | inhibition at 10 µM ([1]; Homo sapiens, THP-1, 10 μM, read-out: IL-1β inhibitory rate at 10 μM (%)): 37%
7 | CO[C@@H]1COCC[C@@H]1c1nc2nn(-c3c(C)cc(C4CC4)cc3C)cc2c(=O)[nH]1 (racemic) [Example 310, racemic mixture of 1,5-anhydro-3-[2-(4-cyclopropyl-2,6-dimethylphenyl)-4-oxo-4,5-dihydro-2H-pyrazolo[3,4-d]pyrimidin-6-yl]-2,3-dideoxy-4-O-methyl-D-erythro-pentitol and 1,5-anhydro-3-[2-(4-cyclopropyl-2,6-dimethylphenyl)-4-oxo-4,5-dihydro-2H-pyrazolo[3,4-d]pyrimidin-6-yl]-3,4-dideoxy-2-O-methyl-D-erythro-pentitol] | – | > 30 | inhibition at 6 µM ([1]; Homo sapiens, THP-1, 6 μM, read-out: IL-1β inhibitory rate at 6 μM (%)): 99%
8 | CCOc1nc2nn(-c3c(C)cc(OC(F)F)cc3CC(F)(F)F)cc2c(=O)[nH]1 [Example 168, 2-[4-(difluoromethoxy)-2-methyl-6-(2,2,2-trifluoroethyl)phenyl]-6-ethoxy-2,5-dihydro-4H-pyrazolo[3,4-d]pyrimidin-4-one] | 98 | > 30 | –
9 | Cc1cc(C)c(-n2cc3c(=O)[nH]c(C4CCCCO4)nc3n2)c(O)c1 (stereo not shown) [Example 18, 2-(2-hydroxy-4,6-dimethylphenyl)-6-(oxan-2-yl)-2,5-dihydro-4H-pyrazolo[3,4-d]pyrimidin-4-one] | 99 | > 30 | –
10 | CCOc1nc2nn(-c3c(C)cc(OC(F)F)cc3C(F)F)cc2c(=O)[nH]1 [Example 195, 2-[4-(difluoromethoxy)-2-(difluoromethyl)-6-methylphenyl]-6-ethoxy-2,5-dihydro-4H-pyrazolo[3,4-d]pyrimidin-4-one] | 101 | > 30 | –
11 | CCOc1nc2nn(-c3c(C)cc(OC(F)(F)F)cc3F)cc2c(=O)[nH]1 [Example 125, 6-ethoxy-2-[2-fluoro-6-methyl-4-(trifluoromethoxy)phenyl]-2,5-dihydro-4H-pyrazolo[3,4-d]pyrimidin-4-one] | 100 | > 30 | –
